Results as given in patent US10508111B2, “6-[5-amino-6-(2-ethoxyethoxy)-imidazo[4,5-B]pyridin-3-yl]-nicotinonitrile derivatives and their use as IRAK inhibitors” (GALAPAGOS NV, priority 2015, dated 2019).

How the values were obtained:
GSK3b = target: T1, GSK3b (Homo sapiens, UniProt P49841); test: Kinase selectivity profiling (focused panel), radioactive filter plate assay: GSK3b; type: biochemical; conditions: Phospho glycogen synthase peptide2, 1.5 μM ATP, 90 min
T1 construct: purchased Carna Biosciences 04-141
T1 sequence (P49841 whole entry): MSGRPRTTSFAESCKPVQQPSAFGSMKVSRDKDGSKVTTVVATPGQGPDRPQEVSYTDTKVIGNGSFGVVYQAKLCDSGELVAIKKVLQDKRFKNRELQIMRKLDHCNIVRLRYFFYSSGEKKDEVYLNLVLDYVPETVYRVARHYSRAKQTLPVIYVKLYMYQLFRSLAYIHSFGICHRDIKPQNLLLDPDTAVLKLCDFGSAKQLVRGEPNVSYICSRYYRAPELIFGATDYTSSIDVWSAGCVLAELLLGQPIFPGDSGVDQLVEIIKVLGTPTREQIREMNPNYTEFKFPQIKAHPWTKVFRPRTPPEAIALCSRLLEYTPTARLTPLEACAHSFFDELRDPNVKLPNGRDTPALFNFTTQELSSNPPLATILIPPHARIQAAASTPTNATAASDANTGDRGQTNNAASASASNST
Protocol: (§1) The purpose of this assay is to determine the activity and selectivity of a compound of the invention on a selected range of human kinases which may result in undesirable side-effects when inhibited (Dy & Adjei 2013; Force & Kolaja 2011).
(§2) The IC50 value for off-target kinases is determined in radioactive filter plate assays. The principle of the assays consists in the measurement of incorporated ^33P into a peptide substrate upon phosphorylation by the kinase enzyme using [γ-^33P]ATP and ATP. Unincorporated ^33P is removed by loading the samples on a filter plate (using a harvester, PerkinElmer) and 6 subsequent washing steps. Incorporated ^33P in the peptide substrate is measured by a scintillation counter (Topcount, PerkinElmer) after addition of MicroScint™-20 (PerkinElmer, 6013621) to the filter plates.
(§3) 5 μL of a water dilution series of test compound (starting from 20 μM or 6.6 μM highest concentration), from a 100% DMSO stock solution, 1/5 dilution, is added to the wells (final DMSO concentration of 1% in reaction assay). Enzyme and peptide substrate are used at optimized concentrations (cf. Table VI). The enzyme and substrate are diluted in assay buffer to a total volume of 11 μL. The reaction is started by addition of 9 μL of ATP+[γ-^33P]ATP, diluted in the same buffer as enzyme and substrate. The mixture is incubated at 30° C. The reaction is terminated by adding 25 μL of 150 mM phosphoric acid. Samples are transferred to filter plates and incorporated radioactivity is measured using a scintillation counter.
(§4) The incubation time, assay buffer composition, and concentrations of ATP, enzyme and substrate are reported in Table VI for example kinase off-target assays.
(§5) 10 μM staurosporine (1% DMSO) is used as positive control (100% inhibition); vehicle (water+1% DMSO) as negative control (0% inhibition).

CDK2 = target: T2, CDK2 (Homo sapiens, UniProt P24941); test: Kinase selectivity profiling (focused panel), radioactive filter plate assay: CDK2; type: biochemical; conditions: Histone H1-derived peptide, 0.1 μM ATP, 60 min
T2 construct: purchased Carna Biosciences 04-103
Protocol: as §1, §2, §3, §4, §5

CDK9 = target: T3, CDK9 (Homo sapiens, UniProt P50750); test: Kinase selectivity profiling (focused panel), radioactive filter plate assay: CDK9; type: biochemical; conditions: PDKtide, 0.25 μM ATP, 60 min
T3 construct: purchased Millipore 14-685
T3 sequence (P50750 whole entry): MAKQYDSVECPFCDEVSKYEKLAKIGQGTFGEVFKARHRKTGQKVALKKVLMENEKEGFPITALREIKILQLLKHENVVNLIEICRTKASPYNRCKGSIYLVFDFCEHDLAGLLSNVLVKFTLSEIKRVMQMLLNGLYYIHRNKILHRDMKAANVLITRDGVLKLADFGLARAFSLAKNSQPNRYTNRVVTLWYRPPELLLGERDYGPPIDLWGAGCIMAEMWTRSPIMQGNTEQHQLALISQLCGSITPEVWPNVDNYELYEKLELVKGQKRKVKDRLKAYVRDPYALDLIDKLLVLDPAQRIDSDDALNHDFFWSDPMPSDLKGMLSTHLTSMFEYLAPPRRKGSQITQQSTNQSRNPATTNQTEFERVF
T3 sequence (O60563 whole entry partner): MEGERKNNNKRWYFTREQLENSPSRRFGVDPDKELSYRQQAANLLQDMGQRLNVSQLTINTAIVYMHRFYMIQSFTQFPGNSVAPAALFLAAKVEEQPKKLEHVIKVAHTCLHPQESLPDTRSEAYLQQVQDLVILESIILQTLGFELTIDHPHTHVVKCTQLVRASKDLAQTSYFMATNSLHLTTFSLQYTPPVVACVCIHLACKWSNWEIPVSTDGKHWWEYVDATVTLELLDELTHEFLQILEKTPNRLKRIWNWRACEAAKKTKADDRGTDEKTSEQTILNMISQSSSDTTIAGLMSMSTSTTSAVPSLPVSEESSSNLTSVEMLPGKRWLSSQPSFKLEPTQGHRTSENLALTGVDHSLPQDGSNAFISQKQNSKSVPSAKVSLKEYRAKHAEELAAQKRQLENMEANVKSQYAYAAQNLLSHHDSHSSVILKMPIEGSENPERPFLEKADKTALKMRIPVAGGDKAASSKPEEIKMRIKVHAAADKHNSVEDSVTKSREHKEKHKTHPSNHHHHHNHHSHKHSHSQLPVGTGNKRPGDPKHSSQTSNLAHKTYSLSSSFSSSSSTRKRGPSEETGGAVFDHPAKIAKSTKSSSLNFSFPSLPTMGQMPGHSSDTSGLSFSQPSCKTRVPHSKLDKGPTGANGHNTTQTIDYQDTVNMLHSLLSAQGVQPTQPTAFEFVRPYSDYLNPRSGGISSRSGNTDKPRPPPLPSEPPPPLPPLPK
Protocol: as §1, §2, §3, §4, §5

c-SRC = target: T4, c-SRC (Homo sapiens, UniProt P12931); test: Kinase selectivity profiling (focused panel), radioactive filter plate assay: c-SRC; type: biochemical; conditions: PolyGT substrate, 0.25 μM ATP, 60 min
T4 construct: purchased Carna Biosciences 08-173
T4 sequence (P12931 whole entry): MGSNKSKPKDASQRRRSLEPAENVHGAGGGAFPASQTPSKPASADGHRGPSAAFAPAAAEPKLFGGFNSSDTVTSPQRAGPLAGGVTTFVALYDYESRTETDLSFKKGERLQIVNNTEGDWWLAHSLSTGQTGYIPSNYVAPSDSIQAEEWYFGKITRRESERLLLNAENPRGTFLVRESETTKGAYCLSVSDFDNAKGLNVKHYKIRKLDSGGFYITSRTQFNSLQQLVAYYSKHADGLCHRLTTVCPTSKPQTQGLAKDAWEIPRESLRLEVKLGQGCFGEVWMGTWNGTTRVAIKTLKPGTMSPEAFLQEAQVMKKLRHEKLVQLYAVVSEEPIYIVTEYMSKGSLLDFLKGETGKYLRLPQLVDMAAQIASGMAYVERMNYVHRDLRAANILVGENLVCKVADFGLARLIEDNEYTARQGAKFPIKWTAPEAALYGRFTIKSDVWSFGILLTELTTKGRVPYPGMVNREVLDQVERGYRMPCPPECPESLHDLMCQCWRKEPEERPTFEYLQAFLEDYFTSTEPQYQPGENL
Protocol: as §1, §2, §3, §4, §5

[1] = tested on: TNFα triggered MMP13 release in SW1353 cells; test: SW1353 cellular selectivity assay, TNFα trigger, MMP13 readout; type: cell-based, human; conditions: TNFα trigger 10 ng/mL; for IC50: Homo sapiens; for TNFα trigger MMP13 PIN at 20 μM: percent inhibition at 20 μM compound
From the text: The aim of this assay is to evaluate the selectivity of compounds of the invention for the activated TLR/IRAK-4 pathway in an in vitro human cellular assay setting. SW1353 cells are from a chondrocytic cell line and are responsive to both the interleukin 1 (IL-1) and the TNFα cytokine triggers. Both cytokine triggers induce the expression of interleukin 6 (IL-6) and MMP13 by these cells. IL-6 and MMP13 releases are used as readouts in this assay and represent a measure for the level of inhibition of the TLR/IRAK-4 pathway by the tested compound.
SW1353 cells are cultured in DMEM supplemented with 10% FBS and 1% Penicillin/Streptomycin. Cells are incubated at 37° C. in a humidified atmosphere of 5% CO2 and subcultured twice a week. During subculturing, trypsin-EDTA is used to detach the cells, followed by a neutralization step with cell culture medium. After centrifugation (1,000 rpm during 5 min), the pellet is resuspended in cell culture medium and cells are counted using an automated cell counter (Invitrogen Countess™).
Cells are used at passage 16 and plated at a density of 15,000 cells per well in 120 μL cell culture medium in 96-well culture plates. Cells are allowed to attach during overnight incubation.
SW1353 cells are pre-incubated with test compound by addition of 15 μL of 10× concentrated compound solution for 2 h at 37° C. and 5% CO2. The compounds are tested at different concentrations and prepared by 3-fold serial dilutions from the 10 mM stock solution in DMSO followed by a 1/50 dilution step in cell culture medium. Final test concentrations in the assay start from 20 μM, with subsequent 3-fold serial dilutions with equal final DMSO concentrations of 0.2%. After the compound pre-incubation step, the SW1353 cells are triggered by addition of 15 μL of 10× concentrated IL-1f (Peprotech, 200-01B) or TNFα trigger (Peprotech, 300-01A) to the wells with final assay volume of 150 μL per well and final trigger concentration of 1 ng/mL and 10 ng/mL, respectively. Negative controls are adjusted with equal DMSO concentrations without trigger. The assay plates are then incubated in a humidified incubator at 37° C. and 5% CO2. Cell supernatants are harvested 24 h and 48 h later by transferring the cell medium into a V-bottom polypropylene 96-well plate and stored at −80° C. until ELISA readout.
The levels of secreted MMP13 in the cell supernatants are quantified in an antibody capture activity assay. […] After incubation for 1 h at 37° C., fluorescence of the converted substrate is measured with a PerkinElmer EnVision® (excitation wavelength: 320 nm, emission wavelength: 405 nm).
All controls are measured within the linear range of the human IL-6 and MMP13 standard curve of the ELISA. […]

| SMILES | IC50 (GSK3b) [µM] | IC50 (CDK2) [µM] | IC50 (CDK9) [µM] | IC50 (c-SRC) [µM] | IC50 [1] [µM] | TNFα trigger MMP13 PIN at 20 μM [1] |
| --- | --- | --- | --- | --- | --- | --- |
| N#Cc1ccc(-n2cnc3cc(OCCOCCO)c(NC4CCOCC4)nc32)nc1 [Compound 1, 6-[6-[2-(2-hydroxy-ethoxy)-ethoxy]-5-(tetrahydro-pyran-4-ylamino)-imidazo[4,5-b]pyridin-3-yl]-nicotinonitrile] | > 6.67 | > 6.67 | > 1.33 | > 1.33 | > 20 | [26%] |
| C[C@]1(O)CC[C@@H](Nc2nc3c(cc2OCCOCCO)ncn3-c2ccc(C#N)cn2)CC1 [Compound 12, 6-[6-[2-(2-hydroxyethoxy)ethoxy]-5-[((cis-1,4)-4-hydroxy-4-methylcyclohexyl)amino]imidazo[4,5-b]pyridin-3-yl]pyridine-3-carbonitrile] | > 1.33 | 0.944 | 1.15 | 0.477 | > 20 | [36%] |
